# Reference: paper PMC11173529, “Structure–Activity Relationship Studies in a Series of Xanthine Inhibitors of SLACK Potassium Channels” (Molecules, 2024)
# Target: T1, SLICK (Homo sapiens, UniProt Q6UVM3)
# T1 construct: expressed in transfected cells; host or cells: HEK293
# T1 sequence (Q6UVM3 1-1135): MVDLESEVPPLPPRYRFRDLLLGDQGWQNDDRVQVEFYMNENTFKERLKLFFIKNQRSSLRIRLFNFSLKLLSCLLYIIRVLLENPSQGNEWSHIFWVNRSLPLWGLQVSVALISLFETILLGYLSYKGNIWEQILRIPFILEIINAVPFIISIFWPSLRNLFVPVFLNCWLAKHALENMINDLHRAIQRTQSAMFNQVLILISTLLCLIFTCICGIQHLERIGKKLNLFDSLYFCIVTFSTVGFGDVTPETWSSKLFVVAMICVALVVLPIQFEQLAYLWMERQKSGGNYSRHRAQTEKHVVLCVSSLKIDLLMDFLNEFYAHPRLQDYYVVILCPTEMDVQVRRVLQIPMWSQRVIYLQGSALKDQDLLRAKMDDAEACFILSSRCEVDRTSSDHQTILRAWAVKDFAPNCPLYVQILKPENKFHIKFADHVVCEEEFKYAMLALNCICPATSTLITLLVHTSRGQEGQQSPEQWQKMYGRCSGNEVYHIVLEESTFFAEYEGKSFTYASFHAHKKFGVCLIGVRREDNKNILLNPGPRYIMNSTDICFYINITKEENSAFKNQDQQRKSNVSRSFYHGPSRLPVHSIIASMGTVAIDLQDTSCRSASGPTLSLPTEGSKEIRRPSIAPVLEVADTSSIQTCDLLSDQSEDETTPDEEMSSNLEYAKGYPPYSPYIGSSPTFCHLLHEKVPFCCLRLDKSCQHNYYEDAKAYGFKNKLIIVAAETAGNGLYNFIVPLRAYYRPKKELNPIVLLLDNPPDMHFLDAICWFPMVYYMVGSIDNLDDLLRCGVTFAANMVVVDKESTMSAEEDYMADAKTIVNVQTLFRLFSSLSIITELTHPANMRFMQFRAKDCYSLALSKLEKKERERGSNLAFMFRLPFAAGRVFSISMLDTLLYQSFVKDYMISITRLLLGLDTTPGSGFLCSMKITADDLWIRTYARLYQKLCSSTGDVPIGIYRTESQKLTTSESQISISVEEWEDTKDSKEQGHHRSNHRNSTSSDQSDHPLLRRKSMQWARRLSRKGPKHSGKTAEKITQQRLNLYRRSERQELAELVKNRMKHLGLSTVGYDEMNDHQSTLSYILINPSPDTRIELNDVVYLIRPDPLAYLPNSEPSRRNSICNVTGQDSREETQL
# Test: Tl+-flux selectivity panel in HEK-293 cells: SLICK
# Assay type: cell-based
# Conditions: HEK293, 10 µM test compound, relative to control SKF96365, read-out: Percent Inhibition ± SEM
# Method: With a handful of analogs that offered improved SLACK potency relative to hit compound 8, we next proceeded to investigate the ancillary pharmacology of such compounds, both with respect to other Slo family members as well as versus a spectrum of diverse ion channels (Table 5). Thus, we screened four compounds (32, 48, 70, and 71) at 10 µM in our in-house selectivity panel of Tl^+-flux assays in HEK-293 cells stably expressing the target of interest. […] Some valuable SAR was noted as well. […] Reduction of inhibition at Maxi-K α1/β4 also followed. This SAR will be important to bear in mind for continued optimization within this series. […] Of particular note is the lack of significant hERG activity in this series, as activity versus that counter-target has been an issue with other SLACK inhibitors.
# Stably transfected monoclonal HEK293 cell lines expressing Slick, Maxi-K α1/β3, Maxi-K α1/β4, CaV3.2, GIRK 1/2, KV2.1, KV7.2, NaV1.7, and TASK-1 were generated as previously described. Stably transfected monoclonal HEK293 cell lines expressing hERG were generated as previously described. CHO-K1 cells expressing human Slack and disease-associated human Slack mutations, G288S and A934T, were generated by transfecting a PiggyBac TRE mammalian expression vector (VectorBuilder, Chicago, IL, USA) containing KCNT1. FuGENE 6 (Promega, Madison, WI, USA) transfection reagent and protocol, together with Opti-MEM (Thermo Fisher Scientific, Walkham, MA, USA), were utilized.
# The Tl^+ flux assays were conducted as previously described with modifications optimized for individual cell lines as described below. Following removal of cell culture media, cells were loaded with Tl^+-sensitive dye loading solution containing Thallos-AM (ION Biosciences, San Marcos, TX, USA), 1.25 mM Probenecid, and 0.3% Pluronic F-127 (MilliporeSigma, Burlington, MA, USA), in assay buffer comprised of Hanks Balanced Salt Solution (HBSS) (Thermo Fisher Scientific, Waltham, MA, USA) and 20 mM HEPES (Corning, Corning, NY, USA) at room temperature for one-hour. Dye loading solution was replaced with 20 μL/well of assay buffer prior to assaying. Cell plates were then loaded onto a Panoptic kinetic imaging plate reader (WaveFront Biosciences, Franklin, TN, USA). Data were acquired at 5 Hz (excitation 482 ± 35 nm, emission 536 ± 40 nm) for 10 s, at which time 20 μL/well of test compounds in assay buffer at 2-fold above the desired final concentration was added and allowed to incubate for 120 s. Next, 10 μL/well of Tl^+ stimulus buffer (129 mM Na gluconate, 1.2 mM CaSO4, 1 MgSO4, 1 mM Na2HPO4, 4.17 mM NaHCO3, 5.56 mM glucose, 2.5 mM Tl2SO4, and 10 mM HEPES pH 7.3) was added. Imaging was concluded after an additional 120 s.
row,Compound,inhibition at 10 µM [%]
1,CCCCN(Cc1ccccc1)c1nc2c(c(=O)n(Cc3ccccc3)c(=O)n2C)n1C [Analog 70],18 ± 4.2
2,CN(Cc1cccc(F)c1)c1nc2c(c(=O)n(Cc3ccccc3)c(=O)n2C)n1C [Analog 48],21 ± 3.1
3,Cn1c(N(Cc2ccccc2)CC2CC2)nc2c1c(=O)n(Cc1ccccc1)c(=O)n2C [Analog 71],17 ± 2.5
4,COc1cccc(Cn2c(=O)c3c(nc(N(C)Cc4ccccc4)n3C)n(C)c2=O)c1 [Analog 32],28 ± 5.5
